Data as given in ChEMBL document CHEMBL5678795 (Eur J Pharmacol, 1999).
Active and inactive are the calls of the source. No cut-off for these calls is given here.

Key:
[1] = biological target: Beta-2 adrenergic receptor (Homo sapiens) (UniProt P07550); assay: Displacement of [3H](-)CGP 12177 from human recombinant beta2-adrenoceptor at 10 uM incubated for 120 mins by radiometric based scintillation counter assay relative to control
[2] = biological target: D(1B) dopamine receptor (Homo sapiens) (UniProt P21918); assay: Displacement of [3H]SCH 23390 from human recombinant dopamine D5 receptor at 10 uM incubated for 60 mins by radiometric based scintillation counter assay relative to control
Chain of D(1B) dopamine receptor (Homo sapiens) (P21918 whole entry): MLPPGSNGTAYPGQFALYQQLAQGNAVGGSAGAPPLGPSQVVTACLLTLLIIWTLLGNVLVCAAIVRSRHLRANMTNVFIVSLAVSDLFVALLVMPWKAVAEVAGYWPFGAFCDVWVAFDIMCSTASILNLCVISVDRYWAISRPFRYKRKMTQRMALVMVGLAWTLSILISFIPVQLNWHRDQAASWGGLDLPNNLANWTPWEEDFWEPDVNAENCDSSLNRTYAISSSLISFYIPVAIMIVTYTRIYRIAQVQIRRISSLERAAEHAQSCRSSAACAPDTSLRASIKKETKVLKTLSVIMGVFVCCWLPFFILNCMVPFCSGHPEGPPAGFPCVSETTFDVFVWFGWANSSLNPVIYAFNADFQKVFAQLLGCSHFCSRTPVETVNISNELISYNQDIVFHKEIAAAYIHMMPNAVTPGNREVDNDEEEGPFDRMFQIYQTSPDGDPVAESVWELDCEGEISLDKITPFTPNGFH

[3] = biological target: Interleukin-1 beta (Homo sapiens) (UniProt P01584); assay: Inhibition of Interleukin-1beta (unknown origin) at 10 uM by radioligand binding assay relative to control
Chain of Interleukin-1 beta (Homo sapiens) (P01584 117-269 limits assumed): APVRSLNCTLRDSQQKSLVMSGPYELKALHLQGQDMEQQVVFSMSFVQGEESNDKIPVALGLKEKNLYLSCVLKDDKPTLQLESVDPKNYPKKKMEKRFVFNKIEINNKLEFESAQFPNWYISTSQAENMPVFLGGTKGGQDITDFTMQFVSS

[4] = biological target: Tumor necrosis factor receptor superfamily member 1A (Homo sapiens) (UniProt P19438); assay: Displacement of [125I]TNF-alpha from human tumor necrosis factor-alpha at 10 uM incubated for 120 mins by radiometric based scintillation counter assay relative to control
Chain of Tumor necrosis factor receptor superfamily member 1A (Homo sapiens) (P19438 whole entry): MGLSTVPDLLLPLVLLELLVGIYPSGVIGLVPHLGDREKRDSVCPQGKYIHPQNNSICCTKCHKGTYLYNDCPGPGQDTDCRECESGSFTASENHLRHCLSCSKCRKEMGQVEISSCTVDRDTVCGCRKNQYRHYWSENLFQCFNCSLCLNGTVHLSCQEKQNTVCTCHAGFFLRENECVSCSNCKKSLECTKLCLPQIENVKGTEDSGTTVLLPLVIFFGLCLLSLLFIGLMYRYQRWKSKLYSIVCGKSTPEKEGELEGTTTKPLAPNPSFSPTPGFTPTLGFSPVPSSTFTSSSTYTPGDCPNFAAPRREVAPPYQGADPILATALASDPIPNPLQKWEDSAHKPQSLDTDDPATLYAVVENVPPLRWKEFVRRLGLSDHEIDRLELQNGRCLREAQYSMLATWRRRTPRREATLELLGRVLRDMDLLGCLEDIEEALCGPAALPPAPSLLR

[5] = biological target: Histamine H1 receptor (Homo sapiens) (UniProt P35367); assay: Displacement of [3H]pyrilamine from human recombinant central-type histamine H1 receptor at 10 uM incubated for 60 mins by radiometric based scintillation counter assay relative to control
Chain of Histamine H1 receptor (Homo sapiens) (P35367 whole entry): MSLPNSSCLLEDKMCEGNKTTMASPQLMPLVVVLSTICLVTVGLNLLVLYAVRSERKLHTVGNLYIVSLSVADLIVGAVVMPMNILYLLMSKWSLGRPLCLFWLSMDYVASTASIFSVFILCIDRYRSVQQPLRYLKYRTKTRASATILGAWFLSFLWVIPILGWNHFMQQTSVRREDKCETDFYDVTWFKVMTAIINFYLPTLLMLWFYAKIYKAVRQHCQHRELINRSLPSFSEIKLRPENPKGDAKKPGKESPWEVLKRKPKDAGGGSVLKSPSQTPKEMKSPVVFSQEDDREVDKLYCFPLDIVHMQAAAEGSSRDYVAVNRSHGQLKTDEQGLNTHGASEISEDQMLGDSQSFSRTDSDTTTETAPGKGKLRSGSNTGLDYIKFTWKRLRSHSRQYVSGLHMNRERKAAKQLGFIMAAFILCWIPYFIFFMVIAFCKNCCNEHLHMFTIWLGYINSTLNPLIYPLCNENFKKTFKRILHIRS

[6] = biological target: Substance-K receptor (Homo sapiens) (UniProt P21452); assay: Displacement of [125I]NKA from human recombinant Neurokinin A receptor at 10 uM incubated for 60 mins by radiometric based scintillation counter assay relative to control
Chain of Substance-K receptor (Homo sapiens) (P21452 whole entry): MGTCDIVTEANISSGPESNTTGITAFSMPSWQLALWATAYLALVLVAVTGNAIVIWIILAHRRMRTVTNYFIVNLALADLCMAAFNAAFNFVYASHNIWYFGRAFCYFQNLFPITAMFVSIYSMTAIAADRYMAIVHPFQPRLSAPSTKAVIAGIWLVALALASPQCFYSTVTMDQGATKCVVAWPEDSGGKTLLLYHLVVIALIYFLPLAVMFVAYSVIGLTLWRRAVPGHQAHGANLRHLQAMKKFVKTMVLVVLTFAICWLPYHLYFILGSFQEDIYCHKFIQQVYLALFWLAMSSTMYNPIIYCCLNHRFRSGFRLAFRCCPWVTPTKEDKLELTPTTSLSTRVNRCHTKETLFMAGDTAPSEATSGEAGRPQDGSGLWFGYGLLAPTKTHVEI

[7] = biological target: Neuromedin-K receptor (Homo sapiens) (UniProt P29371); assay: Displacement of [3H]SR 142801 from human recombinant NK3 tachykinin receptor at 10 uM incubated for 120 mins by radiometric based scintillation counter assay relative to control
Chain of Neuromedin-K receptor (Homo sapiens) (P29371 whole entry): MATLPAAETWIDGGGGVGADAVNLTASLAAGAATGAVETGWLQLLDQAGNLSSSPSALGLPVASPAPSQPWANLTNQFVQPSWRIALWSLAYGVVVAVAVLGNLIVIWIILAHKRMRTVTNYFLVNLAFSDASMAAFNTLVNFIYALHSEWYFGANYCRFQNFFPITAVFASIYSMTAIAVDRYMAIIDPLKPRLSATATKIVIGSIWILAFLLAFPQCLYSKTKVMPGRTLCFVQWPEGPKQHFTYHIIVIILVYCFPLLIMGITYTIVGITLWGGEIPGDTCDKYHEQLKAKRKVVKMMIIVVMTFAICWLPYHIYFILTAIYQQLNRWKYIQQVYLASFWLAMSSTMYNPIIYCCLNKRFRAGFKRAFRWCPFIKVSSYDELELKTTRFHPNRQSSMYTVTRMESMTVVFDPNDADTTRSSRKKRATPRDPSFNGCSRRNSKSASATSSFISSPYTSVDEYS

[8] = biological target: 5-hydroxytryptamine receptor 7 (Homo sapiens) (UniProt P34969); assay: Displacement of [3H]LSD from human recombinant 5-Hydroxytryptamine 7 at 10 uM incubated for 120 mins by radiometric based scintillation counter assay relative to control
Chain of 5-hydroxytryptamine receptor 7 (Homo sapiens) (P34969 whole entry): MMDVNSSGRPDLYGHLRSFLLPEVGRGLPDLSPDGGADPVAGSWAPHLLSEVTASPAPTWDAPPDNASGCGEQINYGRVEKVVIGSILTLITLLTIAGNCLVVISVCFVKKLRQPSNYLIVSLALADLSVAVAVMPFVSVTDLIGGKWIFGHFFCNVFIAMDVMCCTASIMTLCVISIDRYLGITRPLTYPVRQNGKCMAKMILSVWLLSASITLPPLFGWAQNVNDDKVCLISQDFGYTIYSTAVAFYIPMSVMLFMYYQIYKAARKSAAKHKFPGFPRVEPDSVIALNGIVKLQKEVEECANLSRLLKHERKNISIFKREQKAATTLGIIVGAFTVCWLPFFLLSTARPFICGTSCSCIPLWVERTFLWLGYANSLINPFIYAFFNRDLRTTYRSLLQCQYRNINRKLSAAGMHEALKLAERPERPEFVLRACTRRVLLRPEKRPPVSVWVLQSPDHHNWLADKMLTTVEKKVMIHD

[9] = biological target: Vasopressin V1a receptor (Homo sapiens) (UniProt P37288); assay: Displacement of [3H]AVP from human recombinant Vasopressin V1a receptor at 10 uM incubated for 60 mins by radiometric based scintillation counter assay relative to control
Chain of Vasopressin V1a receptor (Homo sapiens) (P37288 whole entry, looked up): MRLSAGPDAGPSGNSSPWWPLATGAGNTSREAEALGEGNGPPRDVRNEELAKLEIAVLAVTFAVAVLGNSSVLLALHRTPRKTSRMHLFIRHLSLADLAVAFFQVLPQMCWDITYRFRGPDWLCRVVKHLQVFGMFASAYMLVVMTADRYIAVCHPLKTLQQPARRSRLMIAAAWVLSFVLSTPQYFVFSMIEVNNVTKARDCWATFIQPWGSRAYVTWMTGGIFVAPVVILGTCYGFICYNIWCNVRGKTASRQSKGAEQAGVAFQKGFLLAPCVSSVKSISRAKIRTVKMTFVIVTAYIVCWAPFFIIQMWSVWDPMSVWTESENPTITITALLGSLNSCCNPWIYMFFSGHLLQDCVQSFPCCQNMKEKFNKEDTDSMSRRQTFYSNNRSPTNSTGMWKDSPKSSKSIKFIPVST

Homo sapiens = organism: Homo sapiens; assay: Inhibition of Ca2+ dependent potassium channel (unknown origin) at 10 uM by radioligand binding assay relative to control
[10] = Half life in Sprague-Dawley rat at 5 mg/kg, iv administered for 12 hrs by HPLC analysis; assay type: ADME, organism-based; details: in vivo
[11] = Cmax in cynomolgus monkey at 5 mg/kg, po administered for 12 hrs by HPLC analysis; assay type: ADME, organism-based, Macaca fascicularis; details: in vivo
[12] = biological target: T1, Endothelin-1 receptor (Rattus norvegicus) (UniProt P26684); assay: In vivo antagonist activity to ETA receptor in endothelin-1 induced Sprague-Dawley rat assessed as inhibition of peak blood pressure administered for 1 to 4 hrs; assay type: functional, organism-based; details: dose 3-100 mg/kg, route po, time 1-4 hrs
T1 sequence (whole entry): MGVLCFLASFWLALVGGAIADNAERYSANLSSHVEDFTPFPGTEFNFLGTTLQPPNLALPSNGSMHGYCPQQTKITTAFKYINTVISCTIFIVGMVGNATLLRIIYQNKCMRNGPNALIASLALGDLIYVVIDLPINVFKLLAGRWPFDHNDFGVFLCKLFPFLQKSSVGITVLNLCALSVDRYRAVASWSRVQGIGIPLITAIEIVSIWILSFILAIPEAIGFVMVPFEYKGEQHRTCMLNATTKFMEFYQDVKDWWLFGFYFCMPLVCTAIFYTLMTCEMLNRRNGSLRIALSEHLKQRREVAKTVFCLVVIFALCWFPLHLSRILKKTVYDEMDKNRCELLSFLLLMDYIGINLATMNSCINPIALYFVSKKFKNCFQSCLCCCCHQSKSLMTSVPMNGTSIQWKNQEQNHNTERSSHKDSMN

[13] = biological target: T1, Endothelin-1 receptor (Rattus norvegicus); assay: In vivo antagonist activity to ETA receptor in endothelin-1 induced Sprague-Dawley rat assessed as reduction of vasopressor response at 30 mg/kg, po administered for 24 hrs; assay type: functional, organism-based

Chain of Beta-2 adrenergic receptor (Homo sapiens) (P07550 whole entry, looked up): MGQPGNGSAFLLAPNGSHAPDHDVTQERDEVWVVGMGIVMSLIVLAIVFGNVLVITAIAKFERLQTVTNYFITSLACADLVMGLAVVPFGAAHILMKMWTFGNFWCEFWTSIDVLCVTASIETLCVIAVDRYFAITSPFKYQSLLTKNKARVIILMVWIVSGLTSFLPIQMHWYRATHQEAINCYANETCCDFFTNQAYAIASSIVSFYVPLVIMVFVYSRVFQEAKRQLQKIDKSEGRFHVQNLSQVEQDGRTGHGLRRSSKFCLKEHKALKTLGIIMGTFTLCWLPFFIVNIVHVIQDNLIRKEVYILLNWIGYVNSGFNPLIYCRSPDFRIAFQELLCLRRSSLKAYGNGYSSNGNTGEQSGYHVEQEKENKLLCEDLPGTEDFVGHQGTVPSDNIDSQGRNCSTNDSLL

Compound: CCCCN(CCCC)C(=O)CN1[C@H](c2cc(OC)c3c(c2)OCO3)C[C@@H](C(=O)O)[C@@H]1CC(C)(C)CCC
- inhibition [1]: < 10%
- inhibition [2]: < 10%
- inhibition [3]: < 10%
- inhibition [4]: < 10%
- inhibition [5]: < 10%
- inhibition [6]: < 10%
- inhibition [7]: < 10%
- inhibition [8]: < 10%
- inhibition [9]: < 10%
- inhibition (Homo sapiens): < 10%
- half-life [10]: 1.6 h
- Cmax [11]: 1100 ng/mL
- Activity [12]: Dose-Dependent Effect
- Activity [13]: inactive
